Data published in the OligoGym collection.
HELM strings list units from the 5' end as sugar, base in round brackets, then linkage (d deoxyribose, r ribose, m 2'-O-methyl, p phosphodiester). Strings are as the collection lists them; they lack the last nucleoside at the 3' end of the tested compound. [moe] = 2'-O-(2-methoxyethyl) (MOE); [sp] = phosphorothioate linkage; [m5C] = 5-methylcytosine

These substances were tested against PRNP (assay: mouse, dose not given). Conditions: ASO.

| Substance | 3 h FOB score [score 0-7] |
| --- | --- |
| RNA1{[moe](G)[sp].[moe](G)p.[moe](T)p.[moe](T)p.[moe]([m5C])[sp].d(A)[sp].d(G)[sp].d(T)[sp].d(G)[sp].d(T)[sp].d(T)[sp].d(G)[sp].d(T)[sp].d(G)[sp].d(A)[sp].[moe]([m5C])p.[moe](A)p.[moe](A)[sp].[moe](T)}$$$$ (last 3' nucleoside missing) | 7 |
| RNA1{[moe](G)[sp].[moe](G)p.[moe]([m5C])p.[moe](A)p.[moe](A)[sp].d(A)[sp].d(G)[sp].d(G)[sp].d(T)[sp].d(A)[sp].d(T)[sp].d(T)[sp].d(T)[sp].d([m5C])[sp].d(A)[sp].[moe](G)p.[moe](A)p.[moe]([m5C])[sp].[moe](T)}$$$$ (last 3' nucleoside missing) | 6.5 |
| RNA1{[moe](G)[sp].[moe](G)p.[moe]([m5C])p.[moe](A)p.[moe]([m5C])[sp].d(T)[sp].d(T)[sp].d(T)[sp].d([m5C])[sp].d(T)[sp].d(T)[sp].d(T)[sp].d(T)[sp].d(T)[sp].d(A)[sp].[moe](T)p.[moe](T)p.[moe](T)[sp].[moe]([m5C])}$$$$ (last 3' nucleoside missing) | 1 |
| RNA1{[moe](G)[sp].[moe](G)p.[moe]([m5C])p.[moe](T)p.[moe](T)[sp].d(A)[sp].d([m5C])[sp].d(T)[sp].d([m5C])[sp].d(G)[sp].d(G)[sp].d([m5C])[sp].d(T)[sp].d(T)[sp].d(G)[sp].[moe](T)p.[moe](T)p.[moe]([m5C])[sp].[moe]([m5C])}$$$$ (last 3' nucleoside missing) | 3.75 |
| RNA1{[moe](G)[sp].[moe](T)[sp].[moe]([m5C])p.[moe](A)p.[moe](G)p.[moe](T)p.[moe](T)p.d(T)[sp].d(T)[sp].d(T)[sp].d([m5C])[sp].d([m5C])[sp].d([m5C])[sp].d([m5C])[sp].d(A)[sp].d([m5C])[sp].d(A)[sp].[moe](T)p.[moe](A)}$$$$ (last 3' nucleoside missing) | 0 |
| RNA1{[moe](G)[sp].[moe](T)p.[moe](A)p.[moe](T)p.[moe](A)[sp].d(A)[sp].d(T)[sp].d(T)[sp].d(T)[sp].d(T)[sp].d(T)[sp].d(T)[sp].d(T)[sp].d(A)[sp].d([m5C])[sp].[moe]([m5C])p.[moe](T)p.[moe](G)[sp].[moe](G)}$$$$ (last 3' nucleoside missing) | 0 |
| RNA1{[moe](G)[sp].[moe](T)p.[moe](A)p.[moe](T)p.[moe](G)[sp].d(T)[sp].d([m5C])[sp].d(A)[sp].d(A)[sp].d(A)[sp].d(A)[sp].d(T)[sp].d([m5C])[sp].d(A)[sp].d(T)[sp].[moe](T)p.[moe]([m5C])p.[moe](T)[sp].[moe](G)}$$$$ (last 3' nucleoside missing) | 6 |
| RNA1{[moe](G)[sp].[moe](T)p.[moe](A)p.[moe](T)p.[moe]([m5C])[sp].d(A)[sp].d(T)[sp].d(G)[sp].d(T)[sp].d(G)[sp].d(G)[sp].d([m5C])[sp].d([m5C])[sp].d(T)[sp].d([m5C])[sp].[moe]([m5C])p.[moe](T)p.[moe](A)[sp].[moe](A)}$$$$ (last 3' nucleoside missing) | 5.5 |
| RNA1{[moe](G)[sp].[moe](T)p.[moe](G)p.[moe](A)p.[moe](A)[sp].d(T)[sp].d(A)[sp].d(T)[sp].d(G)[sp].d(T)[sp].d([m5C])[sp].d([m5C])[sp].d(T)[sp].d([m5C])[sp].d(T)[sp].[moe](A)p.[moe](G)p.[moe]([m5C])[sp].[moe]([m5C])}$$$$ (last 3' nucleoside missing) | 2.5 |
| RNA1{[moe](G)[sp].[moe](T)p.[moe](G)p.[moe](A)p.[moe]([m5C])[sp].d(A)[sp].d(A)[sp].d(T)[sp].d(A)[sp].d(T)[sp].d(T)[sp].d(T)[sp].d(A)[sp].d([m5C])[sp].d(T)[sp].[moe]([m5C])p.[moe](T)p.[moe](T)[sp].[moe](G)}$$$$ (last 3' nucleoside missing) | 1 |
| RNA1{[moe](G)[sp].[moe](T)p.[moe](G)p.[moe](G)p.[moe](A)[sp].d(A)[sp].d(G)[sp].d(A)[sp].d([m5C])[sp].d(T)[sp].d(T)[sp].d(G)[sp].d(T)[sp].d(G)[sp].d(T)[sp].[moe](T)p.[moe](A)p.[moe](G)[sp].[moe](A)}$$$$ (last 3' nucleoside missing) | 5.25 |
| RNA1{[moe](G)[sp].[moe](T)p.[moe](G)p.[moe](T)p.[moe](T)[sp].d(G)[sp].d(T)[sp].d(G)[sp].d(A)[sp].d([m5C])[sp].d(A)[sp].d(A)[sp].d(T)[sp].d(A)[sp].d(T)[sp].[moe](T)p.[moe](T)p.[moe](A)[sp].[moe]([m5C])}$$$$ (last 3' nucleoside missing) | 1 |
| RNA1{[moe](G)[sp].[moe](T)p.[moe](G)p.[moe](T)p.[moe](T)[sp].d([m5C])[sp].d([m5C])[sp].d(A)[sp].d(T)[sp].d([m5C])[sp].d([m5C])[sp].d(T)[sp].d([m5C])[sp].d([m5C])[sp].d(A)[sp].[moe](G)p.[moe](G)p.[moe]([m5C])[sp].[moe](T)}$$$$ (last 3' nucleoside missing) | 1 |
| RNA1{[moe](G)[sp].[moe](T)p.[moe](G)p.[moe](T)p.[moe]([m5C])[sp].d(A)[sp].d(T)[sp].d(A)[sp].d(A)[sp].d(T)[sp].d(T)[sp].d(T)[sp].d(T)[sp].d([m5C])[sp].d(T)[sp].[moe](T)p.[moe](A)p.[moe](G)[sp].[moe]([m5C])}$$$$ (last 3' nucleoside missing) | 0.5 |
| RNA1{[moe](G)[sp].[moe](T)p.[moe](G)p.[moe](T)p.[moe]([m5C])p.[moe](A)p.d(T)[sp].d(A)[sp].d(A)[sp].d(T)[sp].d(T)[sp].d(T)[sp].d(T)[sp].d([m5C])[sp].d(T)[sp].d(T)[sp].[moe](A)p.[moe](G)[sp].[moe]([m5C])}$$$$ (last 3' nucleoside missing) | 0 |
| RNA1{[moe](G)[sp].[moe](T)p.[moe](G)p.[moe](T)p.[moe]([m5C])p.d(A)[sp].d(T)[sp].d(A)[sp].d(A)[sp].d(T)[sp].d(T)[sp].d(T)[sp].d(T)[sp].d([m5C])[sp].[moe](T)[sp].[moe](T)p.[moe](A)p.[moe](G)}$$$$ (last 3' nucleoside missing) | 0 |
| RNA1{[moe](G)[sp].[moe](T)p.[moe](G)p.[moe](T)p.d([m5C])[sp].d(A)[sp].d(T)[sp].d(A)[sp].d(A)[sp].d(T)[sp].d(T)[sp].d(T)[sp].d(T)[sp].d([m5C])[sp].[moe](T)p.[moe](T)p.[moe](A)p.[moe](G)[sp].[moe]([m5C])}$$$$ (last 3' nucleoside missing) | 0 |
| RNA1{[moe](G)[sp].[moe](T)p.[moe](G)p.[moe]([m5C])p.[moe](T)[sp].d(T)[sp].d(A)[sp].d(T)[sp].d(T)[sp].d(A)[sp].d(T)[sp].d(T)[sp].d([m5C])[sp].d(A)[sp].d(T)[sp].[moe](G)p.[moe](T)p.[moe](T)[sp].[moe]([m5C])}$$$$ (last 3' nucleoside missing) | 0.5 |
| RNA1{[moe](G)[sp].[moe](T)p.[moe](T)p.[moe](A)p.[moe](G)[sp].d([m5C])[sp].d(T)[sp].d(T)[sp].d(T)[sp].d(T)[sp].d(T)[sp].d(T)[sp].d(T)[sp].d([m5C])[sp].d(A)[sp].[moe]([m5C])p.[moe](T)p.[moe](G)[sp].[moe](T)}$$$$ (last 3' nucleoside missing) | 0.5 |
| RNA1{[moe](G)[sp].[moe](T)p.[moe](T)p.[moe](G)p.[moe](A)[sp].d(T)[sp].d(T)[sp].d(T)[sp].d(T)[sp].d(T)[sp].d([m5C])[sp].d([m5C])[sp].d(A)[sp].d(G)[sp].d(A)[sp].[moe](A)p.[moe](G)p.[moe](T)[sp].[moe](T)}$$$$ (last 3' nucleoside missing) | 3.25 |
| RNA1{[moe](G)[sp].[moe](T)p.[moe](T)p.[moe](G)p.[moe](T)[sp].d(G)[sp].d(A)[sp].d([m5C])[sp].d(A)[sp].d(A)[sp].d(T)[sp].d(A)[sp].d(T)[sp].d(T)[sp].d(T)[sp].[moe](A)p.[moe]([m5C])p.[moe](T)[sp].[moe]([m5C])}$$$$ (last 3' nucleoside missing) | 0 |
| RNA1{[moe](G)[sp].[moe](T)p.[moe](T)p.[moe](G)p.[moe](T)[sp].d(T)[sp].d(G)[sp].d(A)[sp].d(T)[sp].d(T)[sp].d(T)[sp].d(T)[sp].d(T)[sp].d([m5C])[sp].d([m5C])[sp].[moe](A)p.[moe](G)p.[moe](A)[sp].[moe](A)}$$$$ (last 3' nucleoside missing) | 4.75 |
| RNA1{[moe](G)[sp].[moe](T)p.[moe](T)p.[moe](G)p.[moe](T)[sp].d(T)[sp].d(G)[sp].d(T)[sp].d(T)[sp].d(T)[sp].d([m5C])[sp].d(T)[sp].d(T)[sp].d(T)[sp].d(T)[sp].[moe]([m5C])p.[moe](T)p.[moe](G)[sp].[moe](G)}$$$$ (last 3' nucleoside missing) | 6 |
| RNA1{[moe](G)[sp].[moe](T)p.[moe](T)p.[moe](T)p.[moe]([m5C])[sp].d([m5C])[sp].d([m5C])[sp].d(A)[sp].d([m5C])[sp].d(A)[sp].d(T)[sp].d(A)[sp].d(T)[sp].d(T)[sp].d(A)[sp].[moe](A)p.[moe](G)p.[moe](T)[sp].[moe](A)}$$$$ (last 3' nucleoside missing) | 1 |
| RNA1{[moe](G)[sp].[moe](T)p.[moe](T)p.[moe]([m5C])p.[moe](A)[sp].d(G)[sp].d(A)[sp].d(G)[sp].d(A)[sp].d(A)[sp].d(T)[sp].d([m5C])[sp].d(T)[sp].d(T)[sp].d(T)[sp].[moe]([m5C])p.[moe](A)p.[moe]([m5C])[sp].[moe]([m5C])}$$$$ (last 3' nucleoside missing) | 0 |
| RNA1{[moe](G)[sp].[moe](T)p.[moe](T)p.[moe]([m5C])p.[moe](A)[sp].d(G)[sp].d(T)[sp].d(G)[sp].d(T)[sp].d(T)[sp].d(G)[sp].d(T)[sp].d(G)[sp].d(A)[sp].d([m5C])[sp].[moe](A)p.[moe](A)p.[moe](T)[sp].[moe](A)}$$$$ (last 3' nucleoside missing) | 6.75 |
